Source: patent US6126909A, “Process and apparatus for the production of BI-212 and a use thereof” (Arch Development Corporation, priority 1999, dated 2000)
Several values for one entry are separate records, joined by “and”; a condition that tells them apart may be missing. Identical values can stand only once. Entries after “also recorded” stand apart in the source; their conditions may differ.

Columns and labels:
[1] = Estimated radiation dose in humans; design: species or system human; Gamma dose/100 mCi / Alpha dose/100 mCi / Total dose: unit: cGy; conditions: for Total dose / Calculated alpha dose / Calculated gamma dose: 100 mCi
Text: Based upon the in vivo studies, a contemplated dose of 100 mCi to a human produces an alpha and gamma dose to any organ of less than 150 cGy. The calculated alpha dose to the gastrointestinal tract, liver and kidneys is 87.7, 24.6 and 92.5 cGy, respectively, and the calculated gamma dose is 7.39, 4.14 and 5.00 cGy, respectively. Table 9, below, provides the estimated total dose in humans based upon an initial dose of 100 mCi of Bi-212.

[2] = system: Ehrlich-Lettre Ascites carcinoma cells; assay: Efficacy study in mice inoculated with carcinoma cells; format: in vivo, mouse; conditions: 100 μCi i.p.
Experimental: (§1) In vivo studies were conducted to determine the distribution of Bi-212 produced using the above-noted process and to compare the Bi-212 distribution to the distribution of Pb-212 ferrous hydroxide in colloidal form. The in vivo studies were conducted using white, female New Zealand rabbits weighing about 4.5 kilograms ([…]) each. Studies were also conducted using rabbits to determine the toxicity levels, e.g., the maximum tolerated dose. Efficacy studies were conducted using 25 gram (gm) female Swiss-Webster mice inoculated with Ehrlich-Lettre Ascites carcinoma cells.
Efficacy studies were conducted using groups of five 25 gm female Swiss-Webster mice that were intraperitoneally inoculated with 10^6 Ehrlich-Lettre Ascites carcinoma cells. The mice were subsequently instilled with 100 μCi of Bi-212 in up to 1 cc normal saline 48 hours after inoculation with the Ehrlich-Lettre Ascites carcinoma cells. The mice were sacrificed at one-half hour, one hour and 3 hours after instillation with the Bi-212 solution. Control groups were inoculated with the Ehrlich-Lettre Ascites carcinoma cells only.

[3] = Distribution in peritoneal cavity (imaging and necropsy); format: in vivo, rabbit; conditions: rabbits
Experimental: as §1
Groups of rabbits were instilled with a varying amounts (correlating to varying activities) of Bi-212 that were prepared in accordance with the before-described process, neutralized to pH values of between 5.0 and 7.4, and had added thereto a quantity of normal saline to make a 200 cc sample. To compare the distribution of Bi-212, Pb-212 ferrous hydroxide was prepared in accordance with known methods. Rotmensch et al., Gynecol. Oncol., 35:297-300 (1989). […]
Of the groups of rabbits instilled with the Bi-212 solution, a rabbit was imaged and necropsied at each of one-half hour, one hour and three hours after instillation. The percent injected activity (%IA) in each organ was measured to determine the distribution of the Bi-212(Table 6). […] The percent activity remaining in the peritoneal fluid was measured.

[4] = Biodistribution after intraperitoneal instillation; format: in vivo, rabbit
Experimental: as §1
The rabbits were first anesthetized by intravenous titration. A polyethylene catheter was then inserted into the lower right quadrant of the rabbits' abdominal cavities and a trace amount of technetium-99m pertechnetate was instilled to confirm that the catheter was correctly placed.
Groups of rabbits were instilled with a varying amounts (correlating to varying activities) of Bi-212 that were prepared in accordance with the before-described process, neutralized to pH values of between 5.0 and 7.4, and had added thereto a quantity of normal saline to make a 200 cc sample. To compare the distribution of Bi-212, Pb-212 ferrous hydroxide was prepared in accordance with known methods. Rotmensch et al., Gynecol. Oncol., 35:297-300 (1989). Groups of rabbits were also instilled with the Pb-212 ferrous hydroxide preparation.
After instillation, the rabbits were rotated and imaged with a gamma camera set at 2.6 MeV. Where localization of the nuclide was identified in the rabbits, the rabbits were sacrificed and the localized area was excised and photographed.
Of the groups of rabbits instilled with the Bi-212 solution, a rabbit was imaged and necropsied at each of one-half hour, one hour and three hours after instillation. The percent injected activity (%IA) in each organ was measured to determine the distribution of the Bi-212(Table 6). To determine whether chelating to DTPA improved the retention of Bi-212 in the peritoneal fluid, a group of rabbits was instilled with Bi-212 DTPA, and was imaged and necropsied at three hours following instillation. The percent activity remaining in the peritoneal fluid was measured.

[5] = 1/2 hour after intraperitoneal instillation
[6] = 1 hour after intraperitoneal instillation
[7] = 3 hours after intraperitoneal instillation

Q: Which “Alpha dose/100 mCi” value ([1]; GI tract) does the source give for `[212Bi]` [Bi-212, bismuth-212] here?
A: 87.7

Q: And the “Gamma dose/100 mCi” value ([1]; GI tract)?
A: 7.39

Q: And the Total dose ([1]; GI tract)?
A: 95.1

Q: And the “Alpha dose/100 mCi” value ([1]; brain)?
A: 2.45

Q: What about the “Gamma dose/100 mCi” value ([1]; brain) of the same molecule?
A: 0.038

Q: What about the Total dose ([1]; brain) of the same molecule?
A: 2.49

Q: And the “Alpha dose/100 mCi” value ([1]; breasts)?
A: 2.45

Q: What about the “Gamma dose/100 mCi” value ([1]; breasts) of the same molecule?
A: 0.643

Q: What about the Total dose ([1]; breasts) of the same molecule?
A: 3.09

Q: What about the “Alpha and gamma dose to any organ” value ([1]; contemplated dose of 100 mCi to a human) of the same molecule?
A: less than 150 cGy

Q: What about the Calculated alpha dose ([1]; gastrointestinal tract) of the same molecule?
A: 87.7 cGy

Q: And the Calculated gamma dose ([1]; gastrointestinal tract)?
A: 7.39 cGy

Q: What about the “Alpha dose/100 mCi” value ([1]; kidneys) of the same molecule?
A: 92.5

Q: What about the “Gamma dose/100 mCi” value ([1]; kidneys) of the same molecule?
A: 5.00

Q: What about the Calculated alpha dose ([1]; kidneys) of the same molecule?
A: 92.5 cGy

Q: What about the Calculated gamma dose ([1]; kidneys) of the same molecule?
A: 5.00 cGy

Q: And the Total dose ([1]; kidneys)?
A: 97.5

Q: What about the “Alpha dose/100 mCi” value ([1]; liver) of the same molecule?
A: 24.6

Q: And the “Gamma dose/100 mCi” value ([1]; liver)?
A: 4.14

Q: And the Calculated alpha dose ([1]; liver)?
A: 24.6 cGy

Q: And the Calculated gamma dose ([1]; liver)?
A: 4.14 cGy

Q: And the Total dose ([1]; liver)?
A: 28.7

Q: And the “Alpha dose/100 mCi” value ([1]; lungs)?
A: 2.45

Q: And the “Gamma dose/100 mCi” value ([1]; lungs)?
A: 1.33

Q: What about the Total dose ([1]; lungs) of the same molecule?
A: 3.78

Q: What about the “Alpha dose/100 mCi” value ([1]; ovaries) of the same molecule?
A: 102.4

Q: What about the “Gamma dose/100 mCi” value ([1]; ovaries) of the same molecule?
A: 5.42

Q: And the Total dose ([1]; ovaries)?
A: 107.8

Q: And the “Alpha dose/100 mCi” value ([1]; pancreas)?
A: 2.45

Q: What about the “Gamma dose/100 mCi” value ([1]; pancreas) of the same molecule?
A: 17.2

Q: What about the Total dose ([1]; pancreas) of the same molecule?
A: 19.7

Q: And the “Alpha dose/100 mCi” value ([1]; red marrow)?
A: 2.45

Q: What about the “Gamma dose/100 mCi” value ([1]; red marrow) of the same molecule?
A: 2.30

Q: What about the Total dose ([1]; red marrow) of the same molecule?
A: 4.75

Q: And the “Alpha dose/100 mCi” value ([1]; remainder)?
A: 2.45

Q: What about the “Gamma dose/100 mCi” value ([1]; remainder) of the same molecule?
A: 1.78

Q: What about the Total dose ([1]; remainder) of the same molecule?
A: 4.23

Q: What about the “Alpha dose/100 mCi” value ([1]; thyroid) of the same molecule?
A: 2.45

Q: And the “Gamma dose/100 mCi” value ([1]; thyroid)?
A: 0.154

Q: What about the Total dose ([1]; thyroid) of the same molecule?
A: 2.60

Q: What about the “Alpha dose/100 mCi” value ([1]; total body) of the same molecule?
A: 2.45

Q: And the “Gamma dose/100 mCi” value ([1]; total body)?
A: 1.83

Q: What about the Total dose ([1]; total body) of the same molecule?
A: 4.28

Q: And the “Alpha dose/100 mCi” value ([1]; uterus)?
A: 102.4

Q: And the “Gamma dose/100 mCi” value ([1]; uterus)?
A: 21.2

Q: What about the Total dose ([1]; uterus) of the same molecule?
A: 123.6

Q: What about the Median survival time ([2]; 48 hours after 10^6 cells, after treatment) of the same molecule?
A: 82 days

Q: What about the “Cure with no evidence of disease” value ([2]; 3 months later) of the same molecule?
A: 40%

Q: What about the “Distribution in peritoneal cavity/fluid” value ([3]; intraperitoneal instillation) of the same molecule?
A: even distribution within the peritoneal fluid; also recorded: relatively even

Q: And the “Clumping / localized activity in peritoneal cavity” value ([3]; imaging up to 3 hours or necropsy)?
A: no clumping; i.e., no localized activity in the peritoneal cavity up to 3 hours after instillation

Q: What about the Peritoneal fluid [4, 5] of the same molecule?
A: 85.0 % IA and 70.3 % IA and 90.1 % IA

Q: And the Stomach [4, 5]?
A: 0.26 % IA and 0.34 % IA

Q: What about the “Lower intestine & colon” value [4, 6] of the same molecule?
A: 0.87 % IA

Q: And the Peritoneal fluid [4, 6]?
A: 85.7 % IA and 85.1 % IA and 88 % IA

Q: What about the Stomach [4, 6] of the same molecule?
A: 0.09 % IA

Q: What about the Circulating blood [4, 7] of the same molecule?
A: 3.4 % IA and 1.86 % IA and 2.96 % IA

Q: What about the Kidney [4, 7] of the same molecule?
A: 2.15 % IA and 1.21 % IA and 2.10 % IA

Q: And the Liver [4, 7]?
A: 2.26 % IA and 2.25 % IA and 1.17 % IA

Q: What about the “Lower intestine & colon” value [4, 7] of the same molecule?
A: 7.14 % IA and 5.87 % IA and 9.14 % IA

Q: What about the Peritoneal fluid [4, 7] of the same molecule?
A: 75.8 % IA and 80.2 % IA and 83.8 % IA

Q: And the Reproductive organs [4, 7]?
A: 0.53 % IA and 0.61 % IA and 0.59 % IA

Q: And the Stomach [4, 7]?
A: 0.90 % IA and 0.76 % IA and 0.59 % IA

Q: And the Upper small intestine [4, 7]?
A: 8.04 % IA and 6.63 % IA and 9.73 % IA
